This test has as its system Mengo virus on cell line Hep-2. As to the kind of experiment: Antiviral effect: inhibition of the cytopathic effect of Mengo virus on cell line Hep-2. As to conditions: for Antiviral effect, 1 / Antiviral effect, 2 / Antiviral effect, 3 / Antiviral effect, Mean: 24 h pre-incubation; for Antiviral effect, 1: experiment 1; for Antiviral effect, 2: experiment 2; for Antiviral effect, 3: experiment 3; for Antiviral effect, Mean: mean of 3. The class given is cell-based. The procedure:
Then the cells were washed with saline solution and infected with […] of Mengo virus, provide by Institute of Molecular Biology, University of Zurich, which is multiplied in the cell line L929 murine fibroblasts. 18 h later degree of cell destruction was measured by fixation and staining, generally with crystal violet, for reading of cytophatic effect was used a photometer Ultramicroanalytical System (SUMA). A computer program in Pascal UCSD language for the microcomputer system was developed for all calculations and corrections (Ferrero et al., 1994, Biotecnologia Aplicada. Vol. 1:). In this case serial dilution's of human γ-IFN 70 000 IU/ml (MRI, Freeze-dried Reference Human Recombinant Gamma Interferon) was used as standard in order to define unit of antiviral activity. For this reason the antiviral protection shown by the peptide is related to International Units of γ-IFN (Ul/ml). As a negative control were used different peptides from proteins that bind endotoxin. LPS at 10 ng/ml was used as a positively control because is well known that it induced the production of IFNs (Manthey et al., 1994, J. Immunology. Vol. 153: 2653-2663). One unit of antiviral activity is define as the quantity of IFN able to produce an 50% inhibition of the viral replication.

Where a SMILES comes first, the peptide text is derived from it.

With `CC[C@H](C)[C@H](NC(=O)[C@H](CCCNC(=N)N)NC(=O)[C@H](Cc1ccc(O)cc1)NC(=O)[C@H](Cc1c[nH]cn1)NC(=O)[C@@H](N)CS)C(=O)N[C@@H](CCCCN)C(=O)N1CCC[C@H]1C(=O)N[C@H](C(=O)N[C@@H](Cc1ccccc1)C(=O)N[C@@H](CCCNC(=N)N)C(=O)N[C@@H](CCCNC(=N)N)C(=O)N[C@@H](CC(C)C)C(=O)N[C@@H](CCCCN)C(=O)N[C@@H](Cc1c[nH]c2ccccc12)C(=O)N[C@@H](CCCCN)C(=O)N[C@@H](Cc1ccc(O)cc1)C(=O)N[C@@H](CCCCN)C(=O)NCC(=O)N[C@@H](CCCCN)C(=O)N[C@@H](Cc1ccccc1)C(=O)N[C@@H](Cc1c[nH]c2ccccc12)C(=O)N[C@@H](CS)C(=O)O)[C@@H](C)O` [LALF] (H-CHYRIKPTFRRLKWKYKGKFWC-OH), the “Induction of an antiviral state in Hep-2 cells (in words)” value (14 and 28 μg/ml) is “able to induce an antiviral state”. For the same molecule, for the setting “Hep-2, 14 μg/ml”, the “Antiviral effect, 1” value is on record as 35 IU/ml γ-IFN; the “Antiviral effect, 2” value came out at 31.7 IU/ml γ-IFN; the “Antiviral effect, 3” value turned out to be 22 IU/ml γ-IFN; the “Antiviral effect, Mean” value turned out to be 29.5 IU/ml γ-IFN. For the same molecule, for the setting “Hep-2, 28 μg/ml”, the “Antiviral effect, 1” value is 28.7 IU/ml γ-IFN; the “Antiviral effect, 2” value came to 27 IU/ml γ-IFN; the “Antiviral effect, 3” value is listed as 31.4 IU/ml γ-IFN; the “Antiviral effect, Mean” value amounted to 28.3 IU/ml γ-IFN.

These data come from US6632793B1, “Immunological activity for a peptide of the limulus anti-LPS factor” (Centro de Ingenieria Genetica y Biotecnologia, priority 1997, dated 2003).
